Where “and” joins values, the source holds several entries; their conditions need not be identical. Identical values can stand only once. Numbered stars: 1 amine (or outer) side, 2 acyl side, 3 side chain; on linkers, the order of the positions; unused ones are H or OH. Bridge positions count the residues as written; N and C are the ends. Square brackets hold non-standard residues; d marks the D form. Peptide text beside a SMILES is read from it. * marks the point of attachment. Leu(3R-OH,Nα-propionyl) = CCC(=O)N[C@H](C(=O)*)[C@H](O)C(C)C; X1 = CC(C)[C@@H](O[*:3])[C@H](N[*:1])C(=O)[*:2]; NMeT = CN[C@H](C(=O)O)[C@@H](C)O; dPhLac = O=C(O)[C@H](O)Cc1ccccc1; NMeA = CN[C@@H](C)C(=O)O; NMeDha = C=C(NC)C(=O)O
Tests used:
PI3K/Akt = PI3K/Akt BRET sensor (Akt (PH)-RlucII / rGFP-CAAX), EGFR-mediated; type: cell-based, human
Method: (§1) HEK293SL cells were seeded at a density of 7.5 × 10^5 cells per 100-mm dish and 24 h later, transiently transfected as such. For receptor internalization experiments, cells were transfected with 0.12 μg AT1R-RlucII, B2R-RlucII, or β2AR-RlucII and 0.48 μg of either rGFP-CAAX (to assess removal from the PM) or rGFP-FYVE (to assess accumulation in the endosomes). For β-arrestin recruitment assays, cells were transfected with 0.48 μg of receptor-YFP along with 0.12 μg of β-arrestin-RlucII. For β-arrestin/AP-2 binding experiments, cells were transfected with 1 μg Flag-AT1R, 1 μg β2-Adaptin-YFP, and 0.12 μg β-arrestin2-RlucII. For G protein activation, cells were transfected with 3 μg of sp-Flag-AT1R along with either 4.5 μg of the Gαq-polycistronic BRET sensor or 0.24 μg of the Gαi3-RlucII and 0.6 μg of GFP10-Gγ2 and Gβ1 sensors or 0.12 μg PKN-RBD-RlucII and 0.48 μg of rGFP-CAAX. For PKC activation, cells were transfected with 3 μg of sp-Flag-AT1R and 0.18 μg of the PKC sensor. For GTPase activation experiments, cells were transfected with 1 μg Flag-AT1R, 0.48 μg of rGFP-CAAX, and either 0.12 μg of GGA3-PBD-RlucII, PAK-CRIB-RlucII or Raf-RBD-RlucII. For biosensor validation experiments, cells were additionally transfected with 500 ng Flag-K-Ras-WT, Flag-K-Ras-G12V, Flag-K-Ras-SOS-CAAX, HA-ARF6-WT, HA-ARF6-T27N, Myc-Rac1-WT, Myc-Rac1-Q61L or Myc-Rac1-T17N. For PI3K/Akt activation experiments, cells were transfected with 0.48 μg of rGFP-CAAX and 0.12 μg of Akt (PH)-RlucII. After 18 h of transfection, the media was replaced and cells were divided for subsequent experiments. Cells were detached and seeded onto poly-L-ornithine-coated 96-well flat white bottom plates (BrandTech Scientific) at a density of 2.5 × 10^4 cells per well in media. The next day, cells were washed once with Tyrode’s buffer (140 mM NaCl, 2.7 mM KCl, 1 mM CaCl2, 12 mM NaHCO3, 5.6 mM D-glucose, 0.5 mM MgCl2, 0.37 mM NaH2PO4, 25 mM HEPES, pH 7.4) and left in Tyrode’s buffer. For kinetics of β-arrestin recruitment or β-arrestin binding to receptor and AP-2 experiments, cells were serum starved for 30 min, pretreated with 21 (50 µM) or Barbadin (100 µM) for 30 min, stimulated with 100 nM AngII or 1 µM BK and BRET signals were monitored at indicated times using a Victor X Light plate reader (PerkinElmer). Coelenterazine H (final concentration of 5 µM) was added 3–5 min prior to BRET measurements. Filter set was 460/80 nm and 535/30 nm for detecting the RlucII Renilla luciferase (donor) and YFP (acceptor) light emissions, respectively. The BRET ratio was determined by calculating the ratio of the light emitted by YFP over the light emitted by the RlucII. For G protein activation, cells were serum starved, pretreated with compounds for 30 min, stimulated with 100 nM AngII for 2 min (Gαq, Gαi3, and Rho sensors) or 5 min (PKC sensor). For the kinetics of GTPase and PI3K/Akt activation, cells were serum starved, pretreated with 21 (50 µM) or Wortmannin (200 nM) for 30 min, stimulated with ligand (100 nM AngII or 100 ng/ml EGF) and BRET signals were monitored at indicated times. For concentration-response curves, cells were serum-starved, pretreated with various concentrations of compounds for 30 min and stimulated with ligand (100 nM AngII, 1 µM BK, 10 µM Isoproterenol (Iso) or 100 ng/ml EGF) in Tyrode’s buffer for 30 min for receptor internalization, 10 min for ARF6, 2 min for Rac and Rho activation and 5 min for Ras activation and PI3K/Akt activation. BRET signals were monitored using a Synergy2 (BioTek) microplate reader and coelenterazine 400a (final concentrations of 5 µM) added 3–5 min prior to BRET measurements. Filter set was 410/80 nm and 515/30 nm for detecting the RlucII Renilla luciferase (donor) and rGFP/GFP10 (acceptor) light emissions, respectively. The BRET ratio was determined by calculating the ratio of the light emitted by rGFP/GFP10 over the light emitted by the RlucII.

MEK1 = assay: Western blot of ERK1/2 phosphorylation induced by MEK1 (MEK1-WT / MEK1-DD); type: cell-based, human
Method: (§2) HEK293SL cells (10^5 cells per well) were seeded in a poly-L-lysine-coated six-well plate and transiently transfected with 3 μg Flag-AT1R, HA-B2R or HA-β2AR and/or 500 ng Flag-MEK1-WT, Flag-MEK1-DD, Flag-BRAF-WT, Flag-BRAF-V600E, Flag-K-Ras-WT, Flag-K-Ras-G12V, HA-ARF6-WT, or HA-ARF6-T27N. Gαq/11 KO and βarr1/2 KO cells were seeded onto 100 mm dishes at a density of 10^6 cells per dish. Next day, cells were transfected with 3 μg AT1R alone or along with 500 ng of β-arrestin2 using PEI. After 18 h of transfection, cells were detached and re-seeded onto poly-L-lysine coated 12-well plates (~1.5–2 × 10^5cells/well) for subsequent experiments. Forty-eight hours post transfection, in a 37 °C water bath, cells were serum-starved for 30 min, pretreated with DMSO (0.1%) or compound 21/Rasarfin (50 µM or at indicated concentrations) for 30 min, then stimulated or not with the indicated ligand [AngII (1 µM), BK (1 µM), Iso (10 µM) or EGF (100 ng/ml)] at indicated times. Cells were put on ice, washed with PBS and solubilized in 2x laemmli buffer (250 mM Tris–HCl pH 6.8, 2% SDS (w/v), 10% glycerol (v/v), 0.01% bromophenol blue (w/v) and 5% β-mercaptoethanol (v/v)) by heating at 65 °C for 15 min. Lysates were resolved on 10 or 14% SDS-PAGE, transferred to nitrocellulose membranes and immunoblotted for p-ERK1/2, ERK1/2, p-Akt, Akt, HA, Myc, β-actin or FLAG. ImageLab 5.2 software was used to quantify the digital blots as fold of the phosphorylated protein over total protein, which were then normalized as indicated in the figure legends. Uncropped immunoblots are provided in the Source Data file.

MDA-MB-231 cells = assay: Cell viability assay (MTT), MDA-MB-231; type: cell-based, human; settings: for cell viability (MTT signal): S_Fig12f
Method: (§3) MDA-MB-231 breast cancer cells and A549 lung carcinomas (1500 cells in 150 μl/well) were seeded overnight on a clear 96-well plate. Twenty-four hours later, the cells were treated with 0.1% DMSO, or different concentrations of Rasarfin (as indicated), or 10 µM of 21.4, 21.8 (MDA-MB-231 breast cancer cells) or Doxorubicin for the indicated times at 37 °C. At each time point, 10 μl of 5 mg/ml MTT was added to each well and the plates were incubated for an additional 4 h at 37 °C. The absorbance at 590 nm was measured by plate reader. Experiments were done in triplicate and repeated three times.

A549 cells = assay: Cell viability assay (MTT), A549; type: cell-based, human; settings: Doxorubicin
Method: as §3

Gαq = target: T1, Gαq (Homo sapiens, UniProt P50148); assay: Gαq BRET sensor, AT1R-mediated; type: cell-based
T1 construct: expressed in transfected cells; host or cells: HEK293SL
T1 sequence (P50148 whole entry): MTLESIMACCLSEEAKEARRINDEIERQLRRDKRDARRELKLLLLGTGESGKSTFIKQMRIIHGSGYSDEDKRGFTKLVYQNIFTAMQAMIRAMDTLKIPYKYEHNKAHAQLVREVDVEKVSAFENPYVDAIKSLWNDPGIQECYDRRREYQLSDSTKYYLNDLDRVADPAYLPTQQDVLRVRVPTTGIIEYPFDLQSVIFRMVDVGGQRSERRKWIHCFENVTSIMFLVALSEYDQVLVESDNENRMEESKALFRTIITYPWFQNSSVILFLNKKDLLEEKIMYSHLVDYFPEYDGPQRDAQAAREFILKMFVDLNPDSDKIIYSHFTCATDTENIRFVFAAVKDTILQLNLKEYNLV
T1 sequence (P62873 whole entry partner): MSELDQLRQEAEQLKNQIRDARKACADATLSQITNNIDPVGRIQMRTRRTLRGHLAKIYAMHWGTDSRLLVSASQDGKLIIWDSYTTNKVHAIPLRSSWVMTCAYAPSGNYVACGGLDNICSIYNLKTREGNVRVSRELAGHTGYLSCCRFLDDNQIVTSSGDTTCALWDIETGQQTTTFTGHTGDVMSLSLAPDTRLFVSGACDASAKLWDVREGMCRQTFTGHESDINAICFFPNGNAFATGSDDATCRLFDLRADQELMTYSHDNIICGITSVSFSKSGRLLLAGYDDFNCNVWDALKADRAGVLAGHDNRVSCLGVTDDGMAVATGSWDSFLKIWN
T1 sequence (P63211 2-71 partner limits assumed): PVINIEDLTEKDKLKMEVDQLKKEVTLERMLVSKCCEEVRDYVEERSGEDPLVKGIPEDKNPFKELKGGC
Method: as §1, with “The next day, cells were washed once with Tyrode’s buffer (140 mM NaCl, 2.7 mM KCl, 1 mM CaCl2, 12 mM NaHCO3, 5.6 mM D-glucose, 0.5 mM MgCl2, 0.37 mM NaH2PO4, 25 mM HEPES, pH 7.4) and left in Tyrode’s buffer.” left out, “Coelenterazine H (final concentration of 5 µM) was added 3–5 min prior to BRET measurements. Filter set was 460/80 nm and 535/30 nm for detecting the RlucII Renilla luciferase (donor) and YFP (acceptor) light emissions, respectively.” left out, “For G protein activation, cells were serum starved, pretreated with compounds for 30 min, stimulated with 100 nM AngII for 2 min (Gαq, Gαi3, and Rho sensors) or 5 min (PKC sensor).” left out, “For concentration-response curves, cells were serum-starved, pretreated with various concentrations of compounds for 30 min and stimulated with ligand (100 nM AngII, 1 µM BK, 10 µM Isoproterenol (Iso) or 100 ng/ml EGF) in Tyrode’s buffer for 30 min for receptor internalization, 10 min for ARF6, 2 min for Rac and Rho activation and 5 min for Ras activation and PI3K/Akt activation.” left out, “Filter set was 410/80 nm and 515/30 nm for detecting the RlucII Renilla luciferase (donor) and rGFP/GFP10 (acceptor) light emissions, respectively.” left out

[1] = tested on: ERK1/2 activation by AT1R; assay: Western blot of AT1R-mediated ERK1/2 phosphorylation; type: cell-based, human; settings: 50 μM
Method: as §2

COC[C@H]1OC(=O)c2coc3c2[C@@]1(C)C1=C(C3=O)[C@@H]2CCC(=O)[C@@]2(C)C[C@H]1OC(C)=O [Wortmannin, reference compound]
EGF-promoted BRET (PI3K/Akt; Wortmannin-treated, Log [EGF] (ng/ml) -12): 0

O=C(NOCC1CC1)c1ccc(F)c(F)c1Nc1ccc(I)cc1Cl [PD184352, reference compound]
Predicted (LS) mean diff. DMSO vs. compound (Bonferroni's multiple comparisons test) (MEK1; Flag-MEK1 DD): 3.803
ERK1/2 phosphorylation relative to mock (S_Fig.4c) (MEK1; Flag-MEK1 WT): 0.4899 and 0.8 and 0.4446
Predicted (LS) mean diff. DMSO vs. compound (Bonferroni's multiple comparisons test) (MEK1; Flag-MEK1 WT): 0.8426
ERK1/2 phosphorylation relative to mock (S_Fig.4c) (MEK1; mock): 1
Predicted (LS) mean diff. DMSO vs. compound (Bonferroni's multiple comparisons test) (MEK1; mock): 0

COc1cccc2c1C(=O)c1c(O)c3c(c(O)c1C2=O)C[C@@](O)(C(=O)CO)C[C@@H]3O[C@H]1C[C@H](N)[C@H](O)[C@H](C)O1 [Doxorubicin, reference compound]
MDA-MB-231 cell viability (MTT) (MDA-MB-231 cells; Doxorubicin 10 µM): potently killed cells
cell viability (MTT signal) (MDA-MB-231 cells; 24h): 0.213 and 0.2235 and 0.2068
cell viability (MTT signal) (MDA-MB-231 cells; 48h): 0.2026 and 0.1628 and 0.1313
cell viability (MTT signal) (MDA-MB-231 cells; 72h): 0.1199 and 0.1728 and 0.1331
cell viability (MTT signal) (A549 cells; 24h): 0.213 and 0.2235 and 0.2068
cell viability (MTT signal) (A549 cells; 48h): 0.2026 and 0.1628 and 0.1313
cell viability (MTT signal) (A549 cells; 72h): 0.1331 and 0.1199 and 0.1728

EGF
EGF-promoted BRET (PI3K/Akt; EGF 100 ng/ml, time 0 min): 0
EGF-promoted BRET (PI3K/Akt; EGF 100 ng/ml, time 1 min): 0.3827 and 0.39
EGF-promoted BRET (PI3K/Akt; EGF 100 ng/ml, time 2 min): 0.5443 and 0.5547
EGF-promoted BRET (PI3K/Akt; EGF 100 ng/ml, time 3 min): 0.521 and 0.605
EGF-promoted BRET (PI3K/Akt; EGF 100 ng/ml, time 4 min): 0.6008 and 0.512 and 0.5428
EGF-promoted BRET (PI3K/Akt; EGF 100 ng/ml, time 5 min): 0.5307 and 0.4867 and 0.5263

C=C1C(=O)N[C@@H](C)C(=O)N(C)[C@@H](C)C(=O)N[C@@H]([C@H](OC(=O)[C@@H](NC(=O)CC)[C@H](O)C(C)C)C(C)C)C(=O)N(C)[C@@H]([C@@H](C)OC)C(=O)O[C@H](C(C)C)[C@H](NC(C)=O)C(=O)O[C@H](Cc2ccccc2)C(=O)N1C [UBO-QIC, reference compound] (Ac-[X1][dPhLac][NMeDha]A[NMeA][X1](Leu(3R-OH,Nα-propionyl))[NMeT](Me); ester 1-C)
Gq BRET sensor signal (S_Fig.4b), single experiments (Gαq): 0.0505 and 0.06125 and 0.044

CCC(=O)N1CCN(c2ccc(NC(=O)c3cc4ccccc4o3)cc2Cl)CC1 [Compound 21.2]
inhibition of AT1R-mediated ERK1/2 (MAPK) activation (Fig. 8b) [1]: lost their ability to inhibit MAPK
